This note sets out measurements from patent US20110152183A1, “DERIVATISED HYBRID PEPTIDES OF AMYLIN AND SALMON CALCITONIN” (Novo Nordisk A/S, priority 2008, published 2011).

Peptide text beside a SMILES is read from it.

For this experiment, the target named is T1, Amylin 3(a) receptor (human calcitonin receptor (CTa) + RAMP-3) (Homo sapiens, UniProt O60896+P30988).
T1 construct: expressed in transfected cells; host or cells: BHK570 (baby hamster kidney) cells, stably transfected, with a CRE-luciferase reporter
T1 sequence (O60896 24-148): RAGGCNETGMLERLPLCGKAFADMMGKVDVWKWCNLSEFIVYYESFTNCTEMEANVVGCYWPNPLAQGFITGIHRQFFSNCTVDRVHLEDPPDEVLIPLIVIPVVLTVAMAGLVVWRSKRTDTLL
T1 sequence (P30988 25-474): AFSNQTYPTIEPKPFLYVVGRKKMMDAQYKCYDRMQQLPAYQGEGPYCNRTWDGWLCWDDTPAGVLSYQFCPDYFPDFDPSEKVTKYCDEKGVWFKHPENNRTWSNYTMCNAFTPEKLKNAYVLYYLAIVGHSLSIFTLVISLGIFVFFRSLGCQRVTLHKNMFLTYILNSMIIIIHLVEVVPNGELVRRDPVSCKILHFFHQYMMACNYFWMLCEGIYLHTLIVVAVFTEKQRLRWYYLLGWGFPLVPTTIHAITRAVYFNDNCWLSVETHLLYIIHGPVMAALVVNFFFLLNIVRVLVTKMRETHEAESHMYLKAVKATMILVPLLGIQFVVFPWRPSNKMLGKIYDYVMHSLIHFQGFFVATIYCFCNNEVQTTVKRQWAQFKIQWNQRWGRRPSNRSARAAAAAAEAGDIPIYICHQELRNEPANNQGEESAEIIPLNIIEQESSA
The experiment is described as follows: Amylin luciferase assay (II), CRE luciferase reporter in BHK cells. Format: cell-based. The settings on record: BHK Amylin 3(a)//CRE-luc cells, 4 hours incubation. The text has this: It has previously been published (Poyner D R et al 2002, Pharmacological Reviews 54 (2) 233-246) that activation of Amylin receptors (coexpression of Calcitonin receptor and receptor activity modifying peptides RAMPs) by Amylin leads to an increase in the intracellular concentration of cAMP. Consequently, transcription is activated at promotors containing multiple copies of the cAMP response element (CRE). It is thus possible to measure Amylin activity by use of a CRE luciferase reporter gene introduced into BHK cells also expressing an Amylin receptor.
2. Construction of An Amylin 3(a)/CRE-Luc Cell Line
A BHK570 cell line stably transfected with the human calcitonin receptor (CTa) and a CRE-responsive luciferase reportergene. The cell line was further transfected with RAMP-3, using standard methods. This turns the Calcitonin receptor into an Amylin 3(a) receptor. Methotrexate, Neomycin, and Hygromycin are selection markers for luciferase, the Calcitonin receptor, and RAMP-3, respectively.
3. Amylin Luciferase Assay
To perform activity assays, BHK Amylin 3(a)//CRE-luc cells were seeded in white 96 well culture plates at a density of about 20.000 cells/well. […] Finally, luminescence was measured on a TopCounter (Packard) in SPC (single photon counting) mode.

As usually defined, the EC50 is the concentration at which the effect is half-maximal. As for `CC(C)C[C@H](NC(=O)[C@H](C)NC(=O)[C@@H]1CSSC[C@H](NC(=O)[C@@H](N)CCCCN)C(=O)N[C@@H](CC(N)=O)C(=O)N[C@@H]([C@@H](C)O)C(=O)N[C@@H](C)C(=O)N[C@@H]([C@@H](C)O)C(=O)N1)C(=O)NCC(=O)N[C@@H](CCCNC(=N)N)C(=O)N[C@@H](CC(C)C)C(=O)N[C@@H](CO)C(=O)N[C@@H](CCC(N)=O)C(=O)N[C@@H](CCC(=O)O)C(=O)N[C@@H](CC(C)C)C(=O)N[C@@H](Cc1c[nH]cn1)C(=O)N[C@@H](CCCNC(=N)N)C(=O)N[C@@H](CC(C)C)C(=O)N[C@@H](CCC(N)=O)C(=O)N[C@H](C(=O)N[C@@H](Cc1ccc(O)cc1)C(=O)N1CCC[C@H]1C(=O)N[C@@H](CCCNC(=N)N)C(=O)N[C@H](C(=O)N[C@@H](CC(N)=O)C(=O)N[C@H](C(=O)NCC(=O)N[C@@H](CO)C(=O)N[C@@H](CC(N)=O)C(=O)N[C@H](C(=O)N[C@@H](Cc1ccc(O)cc1)C(N)=O)[C@@H](C)O)[C@@H](C)O)[C@@H](C)O)[C@@H](C)O` [Example 4, Amylin (1-8)-[Arg11,Arg18]sCT (9-27)-amylin (33-37)] (HELM PEPTIDE1{K.C.N.T.A.T.C.A.L.G.R.L.S.Q.E.L.H.R.L.Q.T.Y.P.R.T.N.T.G.S.N.T.Y.[am]}$PEPTIDE1,PEPTIDE1,2:R3-7:R3$$$V2.0; N-terminus assumed), the EC50 was 3 pM.
